Test system: 496974-208-R-J2-PDC complex spheroids, growth % test/control
Test: Anticancer human tumor 496974-208-R-J2-PDC patient-derived pancreatic carcinoma cell line growth inhibition [CLK]
Settings: for IC50: curve of first compound; for viability, T/C: stronger effect = lower value
In short: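 Multi-cell-type spheroids combined patient-derived tumor cells with HUVEC endothelial cells and human mesenchymal stem cells. Paired agents were dosed in half-log steps down from about clinical Cmax, or from 10 microM where Cmax was unknown.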
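Note: spheroids exposed to the drugs for 7 days before readout.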
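Throughout, for viability, T/C: 100% = DMSO vehicle control wells.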

For `Cn1ncnc1[C@H]1c2n[nH]c(=O)c3cc(F)cc(c23)N[C@@H]1c1ccc(F)cc1` + CN1CCN(c2cc(C(=O)Nc3cc4cc(-c5cnn(C)c5)ccc4cn3)ccn2)CC1, the IC50 (second compound 0.0316 µM) was greater than 100000 pM, the IC50 (second compound 0.1 µM) was greater than 100000 pM and the IC50 (second compound 0.316 µM) was less than 316 pM. The IC50 (second compound 1 µM) was less than 316 pM, the IC50 (second compound 3.16 µM) was less than 316 pM and the IC50 (second compound 10 µM) was less than 316 pM. The viability, T/C (second compound 0.0316 µM, first compound 0.000316 µM) was 112%, the viability, T/C (second compound 0.0316 µM, first compound 0.001 µM) was 106% and the viability, T/C (second compound 0.0316 µM, first compound 0.00316 µM) was 99.2%. For the same compound, the viability, T/C (second compound 0.0316 µM, first compound 0.01 µM) was 94.9%, the viability, T/C (second compound 0.0316 µM, first compound 0.0316 µM) was 107% and the viability, T/C (second compound 0.0316 µM, first compound 0.1 µM) was 96.5%. For the same compound, the viability, T/C (second compound 0.1 µM, first compound 0.000316 µM) was 84.8%, the viability, T/C (second compound 0.1 µM, first compound 0.001 µM) was 88.5% and the viability, T/C (second compound 0.1 µM, first compound 0.00316 µM) was 85.1%. It also gave a viability, T/C (second compound 0.1 µM, first compound 0.01 µM) of 79.6%, a viability, T/C (second compound 0.1 µM, first compound 0.0316 µM) of 84.1% and a viability, T/C (second compound 0.1 µM, first compound 0.1 µM) of 63.7%. For the same compound, the viability, T/C (second compound 0.316 µM, first compound 0.000316 µM) was 5.57%, the viability, T/C (second compound 0.316 µM, first compound 0.001 µM) was 7.18% and the viability, T/C (second compound 0.316 µM, first compound 0.00316 µM) was 5.28%. For the same compound, the viability, T/C (second compound 0.316 µM, first compound 0.01 µM) was 6.84%, the viability, T/C (second compound 0.316 µM, first compound 0.0316 µM) was 6.51% and the viability, T/C (second compound 0.316 µM, first compound 0.1 µM) was 9.2%. The viability, T/C (second compound 1 µM, first compound 0.000316 µM) was 0.52%, the viability, T/C (second compound 1 µM, first compound 0.001 µM) was 0.5% and the viability, T/C (second compound 1 µM, first compound 0.00316 µM) was 0.55%. For the same compound, the viability, T/C (second compound 1 µM, first compound 0.01 µM) was 0.33%, the viability, T/C (second compound 1 µM, first compound 0.0316 µM) was 0.32% and the viability, T/C (second compound 1 µM, first compound 0.1 µM) was 2.32%. It also gave a viability, T/C (second compound 3.16 µM, first compound 0.000316 µM) of 0.36%, a viability, T/C (second compound 3.16 µM, first compound 0.001 µM) of 0.46% and a viability, T/C (second compound 3.16 µM, first compound 0.00316 µM) of 1.75%. The viability, T/C (second compound 3.16 µM, first compound 0.01 µM) was 0.59%, the viability, T/C (second compound 3.16 µM, first compound 0.0316 µM) was 0.66% and the viability, T/C (second compound 3.16 µM, first compound 0.1 µM) was 0.41%. For the same compound, the viability, T/C (second compound 10 µM, first compound 0.000316 µM) was 0.27%, the viability, T/C (second compound 10 µM, first compound 0.001 µM) was 1.75% and the viability, T/C (second compound 10 µM, first compound 0.00316 µM) was 0.83%. The viability, T/C (second compound 10 µM, first compound 0.01 µM) was 0.22%, the viability, T/C (second compound 10 µM, first compound 0.0316 µM) was 2.44% and the viability, T/C (second compound 10 µM, first compound 0.1 µM) was 2.04%.
